Measurements reported in patent publication US20110152229A1, “BETULINIC ACID DERIVATIVES AS ANTI-HIV AGENTS” (Duke University, priority 2006, published 2011).
Read-outs that look alike come from different tables or passages of the source.

Columns and labels:
HIV-1 NL4-3 = test: Anti-HIV assay: HIV-1 NL4-3 replication in MT4 cells (p24 ELISA); assay type: cell-based
Text: Anti-HIV assay: A previously known HIV-1 infectivity assay was used in the experiments (See Zhu, et al. Proc. Natl. Acad. Sci. U.S.A. 2001, 98, 15227). A 96-well microtiter plate was used to set up the HIV-1 NL4-3 replication assay. HIV-1 NL4-3 at a multiplicity of infection (MOI) of 0.01 was used to infect MT4 cells. Culture supernatants were collected on day 4 post infection for p24 assay using an ELISA kit from ZeptoMetrix Corporation (Buffalo, N.Y.). Cell fusion assay: TZM cells that express luciferase upon fusion with envelope-expressing COS cells were used as fusion partners. The fusion assays were performed by transfecting monkey kidney cells (COS) with the expression vector pSRHS that contains the HIV-1 NL4-3 envelope genes. Electroporation was performed to express the HIV-1 envelope on COS cells. Briefly, COS cells (10^6) in culture medium were incubated with 2 μg of the envelope expression vector on ice for 10 min. Electroporation was performed using a gene pulser (BioRad, Hercules, Calif.) with capacitance set at 950 μF and voltage at 150 V. The transfected COS cells were cultured for one day before mixing with TZM cells. TZM cells (10×10^4) were incubated with COS cells (10^4) in 96-well flat-bottomed plates (Costar) in 100 μl culture medium. Compounds to be tested at various concentrations in 10 μl of culture medium were incubated with the cell mixtures at 37° C. for 24 hours. A Promega luciferase assay kit was used to quantify luciferase activity in the fused cells using a Biotek luminometer. The drug concentration that reduced the control HIV-1 envelope-mediated fusion by 50% is defined as 50% effective concentration (EC50). HIV-1 maturation assay: MT4 cells (10^5 cells/mL) were infected with HIV-1 NL4-3 at a multiplicity of infection (MOI) of 0.01 infectious units/cells for three days. The culture medium was removed and the infected cells were resuspended at 5×10^5 cells/mL and treated with BA derivatives at various concentrations. The virions in the culture supernatant were collected one day after drug treatment. The viral particles were spun down and subjected to Western Blot analysis of p24 and p25 as previously described. (See Zhou, et al. J. Virol. 2004, 78, 922 and Zhou, et al., Retrovirology 2004, 1, 15.)
Table 1 illustrated the effect of compound 11, 16-20 and 18b against HIV-NL4-3 in MT4 cells.

MT4 cells = test: Reduction of viable cells in a 4-day assay (MT4 cells); assay type: cell-based; settings: Homo sapiens, read-out: IC50 (drug concentration that resulted in a 50% reduction of viable cells)
HIV-1 NL4-3 envelope = test: Cell fusion assay (luciferase-based; TZM cells with envelope-expressing COS cells); settings: FIG. 1; TZM/COS fusion partners, luciferase readout
Text: (§1) Anti-HIV assay: A previously known HIV-1 infectivity assay was used in the experiments (See Zhu, et al. Proc. Natl. Acad. Sci. U.S.A. 2001, 98, 15227). A 96-well microtiter plate was used to set up the HIV-1 NL4-3 replication assay. HIV-1 NL4-3 at a multiplicity of infection (MOI) of 0.01 was used to infect MT4 cells. Culture supernatants were collected on day 4 post infection for p24 assay using an ELISA kit from ZeptoMetrix Corporation (Buffalo, N.Y.). Cell fusion assay: TZM cells that express luciferase upon fusion with envelope-expressing COS cells were used as fusion partners. The fusion assays were performed by transfecting monkey kidney cells (COS) with the expression vector pSRHS that contains the HIV-1 NL4-3 envelope genes. Electroporation was performed to express the HIV-1 envelope on COS cells. Briefly, COS cells (10^6) in culture medium were incubated with 2 μg of the envelope expression vector on ice for 10 min. Electroporation was performed using a gene pulser (BioRad, Hercules, Calif.) with capacitance set at 950 μF and voltage at 150 V. The transfected COS cells were cultured for one day before mixing with TZM cells. TZM cells (10×10^4) were incubated with COS cells (10^4) in 96-well flat-bottomed plates (Costar) in 100 μl culture medium. […] A Promega luciferase assay kit was used to quantify luciferase activity in the fused cells using a Biotek luminometer. […]

HIV-1 p25 processing = test: HIV-1 maturation assay (Western blot of p24 and p25); assay type: cell-based; settings: FIG. 2; p25 detected by Western blot
Text: as §1

[1] = Human immunodeficiency virus 1, NL43, HIV-NL4-3 in MT4 cells, average of at least two experiments, read-out: EC50 (concentration that inhibits HIV-1 replication by 50%)
[2] = 96 h, cytotoxicity, 4-day assay, MT4 cells, average of at least two experiments
[3] = Human immunodeficiency virus 1, NL43, MT4, read-out: EC50 (concentration that inhibits HIV-1 replication by 50%)

| Structure (SMILES) | EC50 (HIV-1 NL4-3; [1]) [nM] | IC50 (MT4 cells; [2]) [nM] | melting point | inhibition of NL4-3 replication (HIV-1 NL4-3; negative control, concentration not given) | EC50 (HIV-1 NL4-3; [3]) [nM] | IC50 (MT4 cells; MT4, 96 h) [nM] | anti-fusion activity: HIV-1 envelope mediated membrane fusion (HIV-1 NL4-3 envelope) | anti-maturation activity: HIV-1 p25 processing (HIV-1 p25 processing) |
| --- | --- | --- | --- | --- | --- | --- | --- | --- |
| C=C(C)[C@@H]1CC[C@]2(C(=O)NCCCCCCCCNC(C)=O)CC[C@]3(C)[C@H](CC[C@@H]4[C@@]5(C)CC[C@H](OC(=O)CC(C)(C)C(=O)O)C(C)(C)[C@@H]5CC[C@]43C)[C@@H]12 [Compound 19, [[N-[3β-O-(3′,3′-Dimethylsuccinyl)-lup-20(29)-en-28-oyl]-8-aminooctyl]-carbamoyl]methane] | 3.6 | 7000 | 113 to 115 °C |  |  |  |  |  |
| C=C(C)[C@@H]1CC[C@]2(C(=O)NCCCCCNC(C)=O)CC[C@]3(C)[C@H](CC[C@@H]4[C@@]5(C)CC[C@H](OC(=O)CC(C)(C)C(=O)O)C(C)(C)[C@@H]5CC[C@]43C)[C@@H]12 [Compound 16, [[N-[3β-O-(3′,3′-dimethylsuccinyl)-lup-20(29)-en-28-oyl]-5-aminopentyl]-carbamoyl]methane] | 12 | 9000 | 137 °C (dec.) |  |  |  |  |  |
| C=C(C)[C@@H]1CC[C@]2(C(=O)On3nnc4ccccc43)CC[C@]3(C)[C@H](CC[C@@H]4[C@@]5(C)CC[C@H](OC(=O)C(C)(C)CC(=O)O)C(C)(C)[C@@H]5CC[C@]43C)[C@@H]12 [Compound 11, O-[3β-O-(2′,2′-Dimethylsuccinyl)-lup-20(29)-en-28-oyl]-1-hydroxybenzotriazole] | 35 | 2500 | 151 to 154 °C |  |  |  |  |  |
| C=C(C)[C@@H]1CC[C@]2(C(=O)NCCCCCCNC(C)=O)CC[C@]3(C)[C@H](CC[C@@H]4[C@@]5(C)CC[C@H](OC(=O)CC(C)(C)C(=O)O)C(C)(C)[C@@H]5CC[C@]43C)[C@@H]12 [Compound 17, [[N-[3β-O-(3′,3′-Dimethylsuccinyl)-lup-20(29)-en-28-oyl]-6-aminohexyl]-carbamoyl]methane] | 7 | 7500 | 137 °C (dec.) |  |  |  |  |  |
| C=C(C)[C@@H]1CC[C@]2(C(=O)O)CC[C@]3(C)[C@H](CC[C@@H]4[C@@]5(C)CC[C@H](O)C(C)(C)[C@@H]5CC[C@]43C)[C@@H]12 [Betulinic acid] |  |  |  | did not inhibit |  |  |  |  |
| C=C(C)[C@@H]1CC[C@]2(C(=O)NCCCCCCCNC(C)=O)CC[C@]3(C)[C@H](CC[C@@H]4[C@@]5(C)CC[C@H](O)C(C)(C)[C@@H]5CC[C@]43C)[C@@H]12 [Compound 18b, [[N-[3β-Hydroxy-lup-20(29)-en-28-oyl]-7-aminoheptyl]-carbamoyl]methane] |  |  |  |  | 47 | > 10000 | inhibits HIV-1 envelope mediated membrane fusion |  |
| C=C(C)[C@@H]1CC[C@]2(C(=O)NCCCCCCCNC(C)=O)CC[C@]3(C)[C@H](CC[C@@H]4[C@@]5(C)CC[C@H](OC(=O)CC(C)(C)C(=O)O)C(C)(C)[C@@H]5CC[C@]43C)[C@@H]12 [Compound 18, [[N-[3β-O-(3′,3′-Dimethylsuccinyl)-lup-20(29)-en-28-oyl]-7-aminoheptyl]-carbamoyl]methane] |  |  | 117 to 120 °C |  | 2.6 | 8000 | inhibits HIV-1 envelope mediated membrane fusion | interfere with HIV-1 p25 processing |
| C=C(C)[C@@H]1CC[C@]2(C(=O)NCCCCCCCCCNC(C)=O)CC[C@]3(C)[C@H](CC[C@@H]4[C@@]5(C)CC[C@H](OC(=O)CC(C)(C)C(=O)O)C(C)(C)[C@@H]5CC[C@]43C)[C@@H]12 [Compound 20, [[N-[3β-O-(3′,3′-Dimethylsuccinyl)-lup-20(29)-en-28-oyl]-9-aminonoyl]-carbamoyl]methane] | 12 | 7400 | 120 to 122 °C |  |  |  |  |  |
